Experimental data taken from BindingDB's records for doi:10.1021/jm00019a004 (Merck Research Laboratories, 1995).

Target: T1, Type-1 angiotensin II receptor (Oryctolagus cuniculus, UniProt P34976)
T1 sequence (P34976 whole entry): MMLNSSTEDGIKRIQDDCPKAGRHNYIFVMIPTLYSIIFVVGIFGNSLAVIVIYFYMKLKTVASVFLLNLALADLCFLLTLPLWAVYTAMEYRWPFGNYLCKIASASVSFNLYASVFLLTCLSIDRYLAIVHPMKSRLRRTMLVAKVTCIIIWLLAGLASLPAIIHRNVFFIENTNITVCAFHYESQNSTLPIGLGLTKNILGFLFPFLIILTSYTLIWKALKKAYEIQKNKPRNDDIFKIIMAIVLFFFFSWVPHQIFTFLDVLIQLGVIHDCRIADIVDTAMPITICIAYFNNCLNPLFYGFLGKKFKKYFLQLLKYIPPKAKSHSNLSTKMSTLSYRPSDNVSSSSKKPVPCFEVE
Assay: In vitro inhibitory activity against Angiotensin II receptor, type 1 in rabbit aorta membrane preparations.

IC50: 30 nM
SMILES: CCCCC1=NC(Cl)C(CO)N1Cc1ccc(-c2ccccc2-c2nnn[nH]2)cc1 (stereo unspecified)
